Laboratory results as given in patent US11427548B2 (Arvinas Operations, Inc., priority 2015, dated 2022).

Target: T1, Androgen Receptor (Homo sapiens, UniProt P10275+P40337, T878A)
T1 construct: Compounds have been evaluated in this assay in LNCaP and/or VCaP cells utilizing similar protocols; endogenous in cells; host or cells: LNCaP cells
Assay: Androgen Receptor ELISA assay (PathScan AR ELISA) in LNCaP cells: AR degradation, Dmax and DC50
Type: cell-based
Conditions: for DC50: concentration that caused 50% Androgen Receptor degradation

[1] = highest percentage of Androgen Receptor degradation
[2] = highest percentage of Androgen Receptor degradation observed

T1 sequence (P10275 whole entry T878A): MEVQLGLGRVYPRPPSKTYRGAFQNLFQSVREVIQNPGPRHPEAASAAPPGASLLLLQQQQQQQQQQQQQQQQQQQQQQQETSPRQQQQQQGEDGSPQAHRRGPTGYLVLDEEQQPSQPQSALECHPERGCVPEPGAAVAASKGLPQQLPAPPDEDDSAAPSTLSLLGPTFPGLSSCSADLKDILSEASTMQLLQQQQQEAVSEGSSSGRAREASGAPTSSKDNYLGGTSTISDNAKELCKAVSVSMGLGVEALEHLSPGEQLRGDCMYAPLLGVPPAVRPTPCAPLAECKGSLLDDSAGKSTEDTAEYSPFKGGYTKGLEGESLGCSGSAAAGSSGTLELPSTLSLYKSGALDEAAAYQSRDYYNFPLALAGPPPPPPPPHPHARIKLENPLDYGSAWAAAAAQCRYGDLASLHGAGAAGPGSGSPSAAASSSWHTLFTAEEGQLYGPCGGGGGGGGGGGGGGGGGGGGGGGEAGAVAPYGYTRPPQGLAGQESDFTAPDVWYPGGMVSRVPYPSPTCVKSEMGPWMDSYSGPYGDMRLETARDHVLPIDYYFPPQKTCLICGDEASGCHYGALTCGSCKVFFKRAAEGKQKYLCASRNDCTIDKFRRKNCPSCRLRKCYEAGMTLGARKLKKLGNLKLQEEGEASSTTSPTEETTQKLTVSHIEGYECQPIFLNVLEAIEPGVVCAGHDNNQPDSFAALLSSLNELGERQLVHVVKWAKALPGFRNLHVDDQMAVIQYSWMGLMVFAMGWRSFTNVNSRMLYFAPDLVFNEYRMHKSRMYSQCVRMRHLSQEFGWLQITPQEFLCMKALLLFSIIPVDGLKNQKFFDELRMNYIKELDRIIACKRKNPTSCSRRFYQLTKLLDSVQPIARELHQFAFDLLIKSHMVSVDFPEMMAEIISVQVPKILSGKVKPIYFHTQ
T1 sequence (P40337 whole entry): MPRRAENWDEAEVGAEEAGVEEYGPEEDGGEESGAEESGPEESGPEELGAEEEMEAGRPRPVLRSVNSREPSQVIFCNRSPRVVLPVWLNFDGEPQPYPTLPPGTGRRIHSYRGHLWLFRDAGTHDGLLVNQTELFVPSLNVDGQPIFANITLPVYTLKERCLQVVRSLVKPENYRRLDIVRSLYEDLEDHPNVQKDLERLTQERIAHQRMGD
T1 sequence (Q15369 whole entry partner): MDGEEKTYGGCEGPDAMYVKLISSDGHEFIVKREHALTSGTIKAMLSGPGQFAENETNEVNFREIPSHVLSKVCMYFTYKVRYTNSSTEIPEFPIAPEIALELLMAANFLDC
T1 sequence (Q15370 whole entry partner): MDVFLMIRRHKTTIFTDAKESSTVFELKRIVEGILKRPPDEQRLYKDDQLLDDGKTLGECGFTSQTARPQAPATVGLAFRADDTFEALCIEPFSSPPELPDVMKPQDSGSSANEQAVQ

## Cc1ncsc1-c1ccc(CNC(=O)[C@@H]2C[C@@H](O)CN2C(=O)[C@H](C(C)C)N2Cc3ccccc3C2=O)c(OCCOc2ccc(N3C(=S)N(c4ccc(C#N)c(C(F)(F)F)c4)C(=O)C3(C)C)cc2)c1 [Example 261]
  DC50: 51 to 500 nM
[1]
  Dmax: < 25%

## Cc1ncsc1-c1ccc(CNC(=O)[C@@H]2C[C@@H](O)CN2C(=O)[C@@H](NC(=O)c2ccc(C3CCN(CCCOc4ccc(N5C(=S)N(c6ccc(C#N)c(C(F)(F)F)c6)C(=O)C5(C)C)cc4)CC3)cc2)C(C)(C)C)cc1 [Example 289]
  DC50: > 501 nM
[1]
  Dmax: 26 to 50%

## Cc1ncsc1-c1ccc(CNC(=O)[C@@H]2C[C@@H](O)CN2C(=O)[C@H](C(C)C)N2Cc3ccc(F)cc3C2=O)c(OCCOCCOCCOc2ccc(N3C(=S)N(c4ccc(C#N)c(C(F)(F)F)c4)C(=O)C3(C)C)cc2)c1 [Example 83, (2S,4R)-N-{[2-(2-{2-[2-(4-{3-[4-cyano-3-(trifluoromethyl)phenyl]-5,5-dimethyl-4-oxo-2-sulfanylideneimidazolidin-1-yl}phenoxy)ethoxy]ethoxy}ethoxy)-4-(4-methyl-1,3-thiazol-5-yl)phenyl]methyl}-1-[(2S)-2-(6-fluoro-1-oxo-2,3-dihydro-1H-isoindol-2-yl)-3-methylbutanoyl]-4-hydroxypyrrolidine-2-carboxamide]
  DC50: 51 to 500 nM
[2]
  Dmax: 51 to 70%

## Cc1ncsc1-c1ccc(CNC(=O)[C@@H]2C[C@@H](O)CN2C(=O)[C@@H](NC(=O)COCCOCCOCCCCCOCCOCCOc2ccc(N3C(=S)N(c4ccc(C#N)c(C(F)(F)F)c4)C(=O)C3(C)C)cc2)C(C)(C)C)cc1 [Example 222]
[1]
  Dmax: 26 to 50%

## Cc1ncsc1-c1ccc(CNC(=O)[C@@H]2C[C@@H](O)CN2C(=O)[C@@H](NC(=O)c2ccc(OCCOCCCOc3ccc(N4C(=S)N(c5ccc(C#N)c(C(F)(F)F)c5)C(=O)C4(C)C)cc3)cc2)C(C)(C)C)cc1 [Example 274]
  DC50: 51 to 500 nM
[1]
  Dmax: 26 to 50%

## Cc1ncsc1-c1ccc(CNC(=O)[C@@H]2C[C@@H](O)CN2C(=O)[C@@H](NC(=O)CCCCCOCCCCCOc2ccc(N3C(=S)N(c4ccc(C#N)c(C(F)(F)F)c4)C(=O)C3(C)C)cc2)C(C)(C)C)cc1 [Example 249]
  DC50: 51 to 500 nM
[1]
  Dmax: > 71%

## Cc1ncsc1-c1ccc(CNC(=O)[C@@H]2C[C@@H](O)CN2C(=O)[C@@H](NC(=O)COCCCCOCCCCCOc2ccc(N3C(=S)N(c4ccc(C#N)c(C(F)(F)F)c4)C(=O)C3(C)C)cc2)C(C)(C)C)cc1 [Example 255]
  DC50: 51 to 500 nM
[1]
  Dmax: > 71%

## Cc1ncsc1-c1ccc(CNC(=O)[C@@H]2C[C@@H](O)CN2C(=O)[C@@H](NC(=O)c2ccc(OCCCOc3ccc(N4C(=S)N(c5ccc(C#N)c(C(F)(F)F)c5)C(=O)C4(C)C)cc3)cc2)C(C)(C)C)cc1 [Example 265]
  DC50: 51 to 500 nM
[1]
  Dmax: < 25%

## Cc1ncsc1-c1ccc(CNC(=O)[C@@H]2C[C@@H](O)CN2C(=O)[C@@H](NC(=O)COCCCOCCOCCOc2ccc(N3C(=S)N(c4ccc(C#N)c(C(F)(F)F)c4)C(=O)C3(C)C)cc2)C(C)(C)C)cc1 [Example 253]
  DC50: 51 to 500 nM
[1]
  Dmax: 51 to 70%

## Cc1ncsc1-c1ccc(CNC(=O)[C@@H]2C[C@@H](O)CN2C(=O)[C@@H](NC(=O)CCOCCOCCOc2ccc(-c3ccc(N4C(=S)N(c5ccc(C#N)c(C(F)(F)F)c5)C(=O)C4(C)C)cc3)cc2)C(C)(C)C)cc1 [Example 68, (2S,4R)-1-[(2S)-2-[3-(2-{2-[4-(4-{3-[4-cyano-3-(trifluoromethyl)phenyl]-5,5-dimethyl-4-oxo-2-sulfanylideneimidazolidin-1-yl}phenyl)phenoxy]ethoxy}ethoxy)propanamido]-3,3-dimethylbutanoyl]-4-hydroxy-N-{[4-(4-methyl-1,3-thiazol-5-yl)phenyl]methyl}pyrrolidine-2-carboxamide]
  DC50: 51 to 500 nM
[2]
  Dmax: 26 to 50%

## Cc1ncsc1-c1ccc(CNC(=O)[C@@H]2C[C@@H](O)CN2C(=O)[C@@H](NC(=O)COCCOCCOCCOc2ccc(N3C(=S)N(c4ccc([N+](=O)[O-])c(C(F)(F)F)c4)C(=O)C3(C)C)cc2)C(C)(C)C)cc1 [Example 19, (2S,4R)-1-[(2S)-2-[2-(2-{2-[2-(4-{5,5-dimethyl-3-[4-nitro-3-(trifluoromethyl)phenyl]-4-oxo-2-sulfanylideneimidazolidin-1-yl}phenoxy)ethoxy]ethoxy}ethoxy)acetamido]-3,3-dimethylbutanoyl]-4-hydroxy-N-{[4-(4-methyl-1,3-thiazol-5-yl)phenyl]methyl}pyrrolidine-2-carboxamide]
  DC50: < 50 nM
[2]
  Dmax: 51 to 70%

## Cc1ncsc1-c1ccc(CNC(=O)[C@@H]2C[C@@H](O)CN2C(=O)[C@@H](NC(=O)c2ccc(OCCOCCCCOc3ccc(N4C(=S)N(c5ccc(C#N)c(C(F)(F)F)c5)C(=O)C4(C)C)cc3)cc2)C(C)(C)C)cc1 [Example 263]
  DC50: 51 to 500 nM
[1]
  Dmax: 26 to 50%

## Cc1ncsc1-c1ccc(CNC(=O)[C@@H]2C[C@@H](O)CN2C(=O)[C@@H](NC(=O)OCCOCCOc2ccc(-c3ccc(N4C(=S)N(c5ccc(C#N)c(C(F)(F)F)c5)C(=O)C4(C)C)cc3F)cc2)C(C)(C)C)cc1 [Example 76, 2-{2-[4-(4-{3-[4-cyano-3-(trifluoromethyl)phenyl]-5,5-dimethyl-4-oxo-2-sulfanylideneimidazolidin-1-yl}-2-fluorophenyl)phenoxy]ethoxy}ethyl N-[(2S)-1-[(2S,4R )-4-hydroxy-2-({[4-(4-methy1-1,3-thiazol-5-yl)phenyl]methyl}carbamoyl)pyrrolidin-l-yl]-3,3-dimethyl-1-oxobutan-2-yl]carhamate]
  DC50: < 50 nM
[2]
  Dmax: 51 to 70%

## Cc1ncsc1-c1ccc(CNC(=O)[C@@H]2C[C@@H](O)CN2C(=O)[C@H](C(C)C)N2Cc3ccccc3C2=O)c(OCCCOCCOc2ccc(N3C(=S)N(c4ccc(C#N)c(C(F)(F)F)c4)C(=O)C3(C)C)cc2)c1 [Example 241]
  DC50: < 50 nM
[1]
  Dmax: 26 to 50%

## Cc1ncsc1-c1ccc(CNC(=O)[C@@H]2C[C@@H](O)CN2C(=O)[C@@H](NC(=O)COCCOCCCOCCOc2ccc(N3C(=S)N(c4ccc(C#N)c(C(F)(F)F)c4)C(=O)C3(C)C)cc2)C(C)(C)C)cc1 [Example 240]
  DC50: < 50 nM
[1]
  Dmax: 51 to 70%

## Cc1ncsc1-c1ccc(CNC(=O)[C@@H]2C[C@@H](O)CN2C(=O)[C@@H](NC(=O)c2ccc(OCCOCCOc3ccc(N4C(=S)N(c5ccc(C#N)c(C(F)(F)F)c5)C(=O)C4(C)C)cc3)cc2)C(C)(C)C)cc1 [Example 264]
  DC50: 51 to 500 nM
[1]
  Dmax: < 25%

## CC[C@H](NC(C)=O)C(=O)N1C[C@H](O)C[C@H]1C(=O)NCc1ccc(-c2scnc2C)cc1OCCOCCOCCOc1ccc(N2C(=S)N(c3ccc(C#N)c(C(F)(F)F)c3)C(=O)C2(C)C)cc1 [Example 280]
  DC50: > 501 nM
[1]
  Dmax: 26 to 50%

## Cc1ncsc1-c1ccc(CNC(=O)[C@@H]2C[C@@H](O)CN2C(=O)[C@@H](NC(=O)COCCOc2ccc(N3C(=S)N(c4ccc(C#N)c(C(F)(F)F)c4)C(=O)C3(C)C)cc2)C(C)(C)C)cc1 [Example 236]
  DC50: > 501 nM
[1]
  Dmax: 26 to 50%

## Cc1ncsc1-c1ccc(CNC(=O)[C@@H]2C[C@@H](O)CN2C(=O)[C@@H](NC(=O)CCOCCNC(=O)CCCc2ccc(N3C(=S)N(c4ccc(C#N)c(C(F)(F)F)c4)C(=O)C3(C)C)cc2)C(C)(C)C)cc1 [Example 232]
  DC50: > 501 nM
[1]
  Dmax: 26 to 50%

## Cc1ncsc1-c1ccc(CNC(=O)[C@@H]2C[C@@H](O)CN2C(=O)[C@@H](NC(=O)OCCOCCCOCCOc2ccc(N3C(=S)N(c4ccc(C#N)c(C(F)(F)F)c4)C(=O)C3(C)C)cc2)C(C)(C)C)cc1 [Example 239]
  DC50: < 50 nM
[1]
  Dmax: 51 to 70%

## Cc1ncsc1-c1ccc(CNC(=O)[C@@H]2C[C@@H](O)CN2C(=O)[C@@H](NC(=O)c2ccc(OCCCCCOc3ccc(N4C(=S)N(c5ccc(C#N)c(C(F)(F)F)c5)C(=O)C4(C)C)cc3)cc2)C(C)(C)C)cc1 [Example 258]
  DC50: 51 to 500 nM
[1]
  Dmax: 26 to 50%

## Cc1ncsc1-c1ccc(CNC(=O)[C@@H]2C[C@@H](O)CN2C(=O)[C@@H](NC(=O)COCCOCCOCCCOCCOCCOc2ccc(N3C(=S)N(c4ccc(C#N)c(C(F)(F)F)c4)C(=O)C3(C)C)cc2)C(C)(C)C)cc1 [Example 216]
  DC50: 51 to 500 nM
[1]
  Dmax: 51 to 70%

## CCC(=O)N[C@H](C(=O)N1C[C@H](O)C[C@H]1C(=O)NCc1ccc(-c2scnc2C)cc1OCCOCCOCCOc1ccc(N2C(=S)N(c3ccc(C#N)c(C(F)(F)F)c3)C(=O)C2(C)C)cc1)C(C)(C)C [Example 267]
  DC50: 51 to 500 nM
[1]
  Dmax: 51 to 70%

## Cc1ncsc1-c1ccc(CNC(=O)[C@@H]2C[C@@H](O)CN2C(=O)[C@H](C(C)C)N2Cc3ccccc3C2=O)c(OCCCOCCCOc2ccc(N3C(=S)N(c4ccc(C#N)c(C(F)(F)F)c4)C(=O)C3(C)C)cc2)c1 [Example 250]
  DC50: 51 to 500 nM
[1]
  Dmax: > 71%

## Cc1ncsc1-c1ccc(CNC(=O)[C@@H]2C[C@@H](O)CN2C(=O)[C@@H](NC(=O)COCCOCCOCCOc2ccc(N3C(=O)N(c4ccc(C#N)c(C(F)(F)F)c4)C(=O)C3(C)C)cc2)C(C)(C)C)cc1 [Example 17, (2S,4R)-1-[(2S)-2-[2-(2-{2-[2-(4-{3-[4-cyano-3-(trifluoromethyl)phenyl]-5,5-dimethyl-2,4-dioxoimidazolidin-1-yl}phenoxy)ethoxy]ethoxy}ethoxy)acetamido]-3,3-dimethylbutanoyl]-4-hydroxy-N-{[4-(4-methyl-1,3-thiazol-5-yl)phenyl]methyl}pyrrolidine-2-carboxamide]
  DC50: 51 to 500 nM
[2]
  Dmax: 26 to 50%

## COc1cc(N2C(=O)C(C)(C)N(c3ccc(OCCCCCOCCCOCC(=O)N[C@H](C(=O)N4C[C@H](O)C[C@H]4C(=O)NCc4ccc(-c5scnc5C)cc4)C(C)(C)C)cc3)C2=S)ccc1C#N [Example 9, (2S,4R)-1-[(2S)-2-(2-{3-[(5-{4-[3-(4-cyano-3-methoxyphenyl)-5,5-dimethyl-4-oxo-2-sulfanylideneimidazolidin-1-yl]phenoxy}pentyl)oxy]propoxy}acetamido)-3,3-dimethylbutanoyl]-4-hydroxy-N-{[4-(4-methyl-1,3-thiazol-5-yl)phenyl]methyl}pyrrolidine-2-carboxamide]
  DC50: < 50 nM
[2]
  Dmax: > 71%

## Cc1ncsc1-c1ccc(CNC(=O)[C@@H]2C[C@@H](O)CN2C(=O)[C@H](C(C)C)N2Cc3cc(CCCCOCCCOc4ccc(N5C(=S)N(c6ccc(C#N)c(C(F)(F)F)c6)C(=O)C5(C)C)cc4)ccc3C2=O)cc1 [Example 273]
  DC50: > 501 nM
[1]
  Dmax: 26 to 50%
